Results reported in publication PMC7195606 (Pharmacology, biochemistry, and behavior, 2020).

Experiments:
[1] = test system: C57Bl/6J mice; experiment: Lethality; type: in vivo; conditions: 2 hr observation; for lethal effects: 20-160 mg/kg IP (MDPV up to 140 mg/kg)
[2] = test system: C57Bl/6J mice; experiment: Rectal; type: in vivo; conditions: for maximal decrease in temperature, females / maximal decrease in temperature, males / effect on body temperature, females / effect on body temperature, males / effect on body temperature: single IP injection; for effect on body temperature, females / effect on body temperature, males / effect on body temperature: ambient 22-23 °C; for effect on body temperature: males and females
[3] = lower doses (<10 mg/kg IP); ref not given; cited from earlier work
[4] = test system: C57Bl/6J mice; experiment: Organ weights normalized to body weight; type: in vivo; conditions: 20-160 mg/kg IP, normalized according to body weight
[5] = test system: C57Bl/6J mice; experiment: Histological analysis of organs by hematoxylin-eosin staining; type: in vivo; conditions: at lethal doses
[6] = ref Miner et al., 2017, cited from earlier work; for decrease in temperature after the first injection: first injection of a binge regimen
[7] = ref Piao et al., 2015; cited from earlier work

C[C@H](N)C(=O)c1ccccc1 [CAT, cathinone]
lethal effects [1]: no lethal effects at any dose | time post injection with significant hypothermia vs baseline ([2]; females, 40 mg/kg IP): lasted the entire duration of the experiment | maximal decrease in temperature, females ([2]; females): ≈ 7 °C | time post injection with significant hypothermia vs baseline ([2]; males, 20 mg/kg IP): 20 min | time post injection with significant hypothermia vs baseline ([2]; males, 40 mg/kg IP): 20 min | time post injection with significant hypothermia vs baseline ([2]; males, 80 mg/kg IP): 20 min | maximal decrease in temperature, males ([2]; males): ≈ 5 °C | hyperthermia [3]: ≈ 1 °C

CN[C@@H](C)Cc1ccccc1 [MA, methamphetamine]
effect on body temperature, females ([2]; females): no significant differences in temperature post-injection | timepoint of return of temperature to baseline ([2]; males, 40 mg/kg IP): ≤ 100 min | effect on body temperature, males ([2]; males): increased body temperature | normalized heart weight [4]: increased normalized heart weight in a dose dependent manner | normalized liver weight [4]: significantly increased normalized liver weight | liver histology (hematoxylin-eosin) [5]: minor changes in cell morphology in the liver

CNC(C)C(=O)c1ccccc1 (stereo not shown) [MCAT, methcathinone]
lethal effects [1]: this occurred at the highest dose and only in one subject | time of peak hypothermic effect after injection ([2]; both males and females): 60 min | maximal decrease in temperature, females ([2]; females): ≈ 7 °C | effect on body temperature [2]: pronounced hypothermic effects | time post injection with significant hypothermia vs baseline ([2]; males, 20 mg/kg IP): 20 min | time post injection with significant hypothermia vs baseline ([2]; males, 80 mg/kg IP): failed to show significance | time post injection with significant hypothermia vs baseline ([2]; males, 120 mg/kg IP): did not identify an significant effects | time post injection with significant hypothermia vs baseline ([2]; males, 160 mg/kg IP): 60 min | maximal decrease in temperature, males ([2]; males): ≈ 3 °C | hyperthermia [3]: ≈ 1 °C

CNC(C)Cc1ccc2c(c1)OCO2 (stereo not shown) [MDMA, 3,4-methylenedioxymethamphetamine]
LD50 as base ([1]; single IP injection, males and females pooled): 100.92 mg/kg | effect on body temperature, females ([2]; females): hypothermic effects | effect on body temperature, males ([2]; males): not significant at any dose | normalized heart weight [4]: increased normalized heart weight in a dose dependent manner | normalized liver weight [4]: did not significantly affect liver weight | liver histology (hematoxylin-eosin) [5]: minor changes in cell morphology in the liver | decrease in temperature after the first injection [6]: 3 °C

CCCC(C(=O)c1ccc2c(c1)OCO2)N1CCCC1 (stereo not shown) [MDPV, methylenedioxypyrovalerone]
lethal effects [1]: no lethal effects at any dose | time post injection with significant hypothermia vs baseline ([2]; females, 80 mg/kg IP): 20 min | time post injection with significant hypothermia vs baseline ([2]; females, 100 mg/kg IP): 20 min | time post injection with significant hypothermia vs baseline ([2]; females, 120 mg/kg IP): 20 min | maximal decrease in temperature, females ([2]; females): ≈ 2 °C | effect on body temperature [2]: significant hypothermic effects in both males and females | time post injection with significant hypothermia vs baseline ([2]; males, 80 mg/kg IP): did not identify any significant differences | time post injection with significant hypothermia vs baseline ([2]; males, 140 mg/kg IP): 20 min | maximal decrease in temperature, males ([2]; males): ≈ 2 °C | effects on temperature ([6]; 1 mg/kg IP): did not find effects

CNC(C)C(=O)c1ccc(C)cc1 (stereo not shown) [MMC, 4-methyl-methcathinone]
maximal decrease in temperature, females ([2]; females): ≈ 6 °C | effect on body temperature, females ([2]; females): profound hypothermic effects | time post injection with significant hypothermia vs baseline ([2]; males, 20 mg/kg IP): 20 min | time post injection with significant hypothermia vs baseline ([2]; males, 120 mg/kg IP): 20 min | maximal decrease in temperature, males ([2]; males): ≈ 4 °C | effect on body temperature, males ([2]; males): greatest temperature decreases in males compared to the five other drugs | normalized heart weight [4]: increased normalized heart weight in a dose dependent manner | normalized liver weight [4]: significantly increased normalized liver weight | liver histology (hematoxylin-eosin) [5]: minor changes in cell morphology in the liver

CNC(C)C(=O)c1ccc2c(c1)OCO2 (stereo not shown) [methylone]
decrease in temperature after the first injection [6]: 4 °C | LD50 compared with MA or MDMA [7]: slightly lower than that of MA or MDMA
